{
  "source": "paper PMC5823474",
  "about": "“A natural agonist of mosquito TRPA1 from the medicinal plant Cinnamosma fragrans that is toxic, antifeedant, and repellent to the yellow fever mosquito Aedes aegypti” (PLoS Neglected Tropical Diseases, 2018)",
  "biological_target": "T1, AgTRPA1 (Transient Receptor Potential A1) (Anopheles gambiae, UniProt B3G3I7)",
  "T1 construct": "AgTRPA1 cRNA expressed in Xenopus laevis oocytes",
  "T1 sequence (B3G3I7 1-1248)": "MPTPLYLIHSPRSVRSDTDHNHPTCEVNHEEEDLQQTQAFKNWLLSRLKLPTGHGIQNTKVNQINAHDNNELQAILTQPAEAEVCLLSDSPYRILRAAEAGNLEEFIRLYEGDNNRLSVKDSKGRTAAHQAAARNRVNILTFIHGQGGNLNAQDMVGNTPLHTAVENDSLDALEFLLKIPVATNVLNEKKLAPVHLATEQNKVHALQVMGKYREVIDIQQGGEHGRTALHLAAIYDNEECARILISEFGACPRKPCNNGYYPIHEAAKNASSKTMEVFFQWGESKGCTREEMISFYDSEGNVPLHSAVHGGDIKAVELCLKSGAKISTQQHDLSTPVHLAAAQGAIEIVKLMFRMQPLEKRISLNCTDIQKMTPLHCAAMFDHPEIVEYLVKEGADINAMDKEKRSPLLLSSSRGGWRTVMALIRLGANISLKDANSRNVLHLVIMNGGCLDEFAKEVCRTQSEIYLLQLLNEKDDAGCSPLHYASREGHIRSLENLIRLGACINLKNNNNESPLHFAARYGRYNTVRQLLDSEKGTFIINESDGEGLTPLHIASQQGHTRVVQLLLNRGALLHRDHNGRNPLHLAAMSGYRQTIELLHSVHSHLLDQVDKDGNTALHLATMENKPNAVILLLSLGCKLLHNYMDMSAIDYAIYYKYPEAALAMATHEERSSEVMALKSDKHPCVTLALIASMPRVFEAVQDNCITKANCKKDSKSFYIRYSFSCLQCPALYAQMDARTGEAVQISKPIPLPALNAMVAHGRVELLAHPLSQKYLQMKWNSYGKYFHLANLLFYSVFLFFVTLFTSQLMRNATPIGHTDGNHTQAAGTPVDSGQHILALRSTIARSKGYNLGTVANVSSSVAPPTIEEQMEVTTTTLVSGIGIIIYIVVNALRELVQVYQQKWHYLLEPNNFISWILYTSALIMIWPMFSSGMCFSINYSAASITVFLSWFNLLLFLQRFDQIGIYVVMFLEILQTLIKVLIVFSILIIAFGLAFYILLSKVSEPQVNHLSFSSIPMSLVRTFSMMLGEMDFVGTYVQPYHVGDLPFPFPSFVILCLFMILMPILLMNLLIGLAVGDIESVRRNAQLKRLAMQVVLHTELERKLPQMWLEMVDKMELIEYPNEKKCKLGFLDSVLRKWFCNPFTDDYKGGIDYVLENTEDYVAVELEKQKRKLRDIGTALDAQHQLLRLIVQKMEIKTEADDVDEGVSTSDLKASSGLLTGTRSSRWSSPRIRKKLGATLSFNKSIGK",
  "assay": "two-electrode voltage clamp in Xenopus oocytes, weaker agonist at […]; no response in H2O-injected oocytes",
  "format": "cell-based",
  "data": [
    {"smiles": "CC(=O)O[C@@H]1C=C(C2O[C@@H]3O[C@@H](O)C4=C[C@@H](OC(C)=O)[C@H]5C(C)(C)CCC[C@]5(C)[C@]43O2)[C@](O)(C=O)[C@@]2(C)CCCC(C)(C)[C@H]12", "note": "(stereo partly shown) [CFRAG, cinnafragrin A]", "values": [
      {"measurement": "two-electrode voltage clamp in Xenopus oocytes, weaker agonist at 10 μM; no resp", "result": "CFRAG produced a similar response, but the peak Im elicited by CDIAL"}
    ]}
  ]
}
